According to US20220073536A1 (Rigel Pharmaceuticals, Inc., priority 2003, published 2022):

What was measured:
[1] = system: cultured human mast cells (CHMC); assay: CHMC low cell density IgE activation: tryptase assay; assay type: cell-based; settings: IgE activation
Outline: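 Tryptase release was read from supernatant with a fluorogenic substrate (30 min, room temperature) after anti-IgE challenge of cultured human mast cells (1000–1500 cells/well, low density) for 30 minutes at 37° C.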

[2] = system: cultured human mast cells (CHMC); assay: CHMC low cell density ionomycin activation: tryptase assay; assay type: cell-based; settings: 3 pt, read-out: LD Tryptase, CHMC, Iono, 3 pt
[3] = low cell density, 3 pt, read-out: LD Tryptase, CHMC, IgE, 3 pt
[4] = low cell density CHMC, tryptase readout, 3 pt, read-out: LD Tryptase, CHMC, IgE, 3 pt
[5] = low cell density CHMC, tryptase readout, 8 pt, read-out: LD Tryptase, CHMC, IgE, 8 pt
[6] = low cell density CHMC, tryptase readout
[7] = Homo sapiens, Mast cell, low cell density CHMC, tryptase readout, 3 pt, read-out: LD Tryptase, CHMC, IgE, 3 pt
[8] = Homo sapiens, Mast cell, low cell density CHMC, tryptase readout, 8 pt, read-out: LD Tryptase, CHMC, IgE, 8 pt
[9] = Homo sapiens, Mast cell, low cell density CHMC, tryptase readout

Row | Structure (SMILES) | IC50 [1, 4] | IC50 [2, 6] | IC50 [1, 7] | IC50 [2, 9] | further results
1 | Cc1ccccc1Nc1ncc(F)c(Nc2ccc3c(n2)NC(=O)C(C)(C)O3)n1 [Compound 1004, N4-(2,2-Dimethyl-3-oxo-4H-5-pyrid[1,4]oxazin-6-yl)-5-fluoro-N2-(2-methylphenyl)-2,4-pyrimidinediamine] | – | – | – | – | IC50 [1, 3]: < 10 µM; IC50 ([2]; low cell density): > 10 µM
2 | CN1C(=O)C(C)(C)Oc2ccc(N(C)c3nc(Cl)ncc3F)nc21 [Compound 1005, 2-Chloro-5-fluoro-N4-methyl-N4-(3-oxo-2,2,4-trimethyl-5-pyrid[1,4]oxazin-6-yl)-4-pyrimidineamine] | – | – | – | – | IC50 [1, 3]: < 10 µM; IC50 ([2]; low cell density): > 10 µM
3 | CN1C(=O)C(C)(C)Oc2ccc(Nc3nc(Cl)ncc3F)nc21 [Compound 1006, 2-Chloro-5-fluoro-N4-(3-oxo-2,2,4-trimethyl-5-pyrid[1,4]oxazin-6-yl)-4-pyrimidineamine] | – | – | – | – | IC50 [1, 3]: > 10 µM; IC50 ([2]; low cell density): > 10 µM
4 | CCOc1c(C)cc(Nc2ncc(F)c(Nc3ccc4c(c3)NC(=O)C(C)(C)O4)n2)cc1Cl [Compound 1008, N2-(3-Chloro-4-ethoxy-5-methylphenyl)-N4-(2,2-dimethyl-3-oxo-4H-benz[1,4]oxazin-6-yl)-5-fluoro-2,4-pyrimidinediamine] | – | – | – | – | IC50 ([1]; Homo sapiens, Mast cell, low cell density, 3 pt, read-out: LD Tryptase, CHMC, IgE, 3 pt): < 10 µM; IC50 ([1]; Homo sapiens, Mast cell, low cell density, 8 pt, read-out: LD Tryptase, CHMC, IgE, 8 pt): < 10 µM; IC50 ([2]; Homo sapiens, Mast cell, low cell density): < 10 µM
5 | CC1(C)Oc2ccc(Nc3nc(Nc4ccc(-c5ncco5)cc4)ncc3F)cc2NC1=O [Compound 1011, N4-(2,2-Dimethyl-3-oxo-4H-benz[1,4]oxazin-6-yl)-5-fluoro-N2-[4-(oxazol-2-yl)phenyl]-2,4-pyrimidinediamine] | – | – | < 10 µM | > 10 µM | IC50 [1, 8]: < 10 µM
6 | CN(c1ccc2c(c1)NC(=O)C(C)(C)O2)c1nc(Nc2cccc(-c3ncco3)c2)ncc1F [Compound 1019, N4-(2,2-Dimethyl-3-oxo-4H-benz[1,4]oxazin-6-yl)-5-fluoro-N4-methyl-N2-[3-(oxazol-2-yl)phenyl]-2,4-pyrimidinediamine] | – | – | < 10 µM | > 10 µM | IC50 [1, 8]: < 10 µM
7 | CC1(C)Oc2ccc(Nc3nc(Nc4ccc(-c5cnco5)cc4)ncc3F)cc2NC1=O [Compound 1020, N4-(2,2-Dimethyl-3-oxo-4H-benz[1,4]oxazin-6-yl)-5-fluoro-N2-[4-(oxazol-5-yl)phenyl]-2,4-pyrimidinediamine] | – | – | < 10 µM | > 10 µM | IC50 [1, 8]: < 10 µM
8 | CN(c1ccc2c(c1)NC(=O)C(C)(C)O2)c1nc(Nc2ccc(-c3ncco3)cc2)ncc1F [Compound 1021] | – | – | < 10 µM | < 10 µM | IC50 [1, 8]: < 10 µM
9 | CNC(=O)COc1cccc(Nc2ncc(F)c(N(C)c3ccc4c(c3)NC(=O)C(C)(C)O4)n2)c1 [Compound 1022, N4-(2,2-Dimethyl-3-oxo-4H-benz[1,4]oxazin-6-yl)-5-fluoro-N4-methyl-N2-[3-(N-methylamino)carbonylmethyleneoxyphenyl]-2,4-pyrimidinediamine] | < 10 µM | > 10 µM | – | – | IC50 [1, 5]: < 10 µM
10 | CN(c1ccc2c(c1)NC(=O)C(C)(C)O2)c1nc(Nc2cccc(-c3cnco3)c2)ncc1F [Compound 1023, N4-(2,2-Dimethyl-3-oxo-4H-benz[1,4]oxazin-6-yl)-5-fluoro-N4-methyl-N2-[3-(oxazol-5-yl)phenyl]-2,4-pyrimidinediamine] | – | – | < 10 µM | > 10 µM | IC50 [1, 8]: < 10 µM
11 | CN1C(=O)C(C)(C)Oc2ccc(N(C)c3nc(Nc4ccc(-c5ncco5)cc4)ncc3F)cc21 [Compound 1024] | – | – | < 10 µM | < 10 µM | –
12 | CN1C(=O)C(C)(C)Oc2ccc(N(C)c3nc(Nc4ccc(-c5cnco5)cc4)ncc3F)cc21 [Compound 1026] | – | – | < 10 µM | > 10 µM | –
13 | CC1(C)Oc2ccc(Nc3nc(Nc4cccc(-c5ncco5)c4)ncc3F)nc2NC1=O [Compound 1028, N4-(2,2-Dimethyl-3-oxo-4H-5-pyrid[1,4]oxazin-6-yl)-5-fluoro-N2-[3-(oxazol-2-yl)phenyl]-2,4-pyrimidinediamine] | < 10 µM | > 10 µM | – | – | IC50 [1, 5]: < 10 µM
14 | CC1(C)Oc2ccc(Nc3nc(Nc4cccc(-c5cocn5)c4)ncc3F)nc2NC1=O [Compound 1029, N4-(2,2-Dimethyl-3-oxo-4H-5-pyrid[1,4]oxazin-6-yl)-5-fluoro-N2-[3-(oxazol-4-yl)phenyl]-2,4-pyrimidinediamine] | < 10 µM | > 10 µM | – | – | IC50 [1, 5]: < 10 µM

More lines, main results first:

Row | IC50 [1, 4] | IC50 [2, 6] | IC50 [1, 7] | IC50 [2, 9] | Structure (SMILES) | further results
15 | < 10 µM | > 10 µM | – | – | COc1c(C)cc(Nc2ncc(F)c(Nc3ccc4c(n3)N(C)C(=O)C(C)(C)O4)n2)cc1Cl [Compound 1009, N2-(3-Chloro-4-methoxy-5-methylphenyl)-5-fluoro-N4-(3-oxo-2,2,4-trimethyl-5-pyrid[1,4]oxazin-6-yl)-2,4-pyrimidinediamine] | IC50 [1, 5]: < 10 µM
16 | < 10 µM | > 10 µM | – | – | CCOc1c(C)cc(Nc2ncc(F)c(Nc3ccc4c(n3)NC(=O)C(C)(C)O4)n2)cc1Cl [Compound 1010, N2-(3-Chloro-4-ethoxy-5-methylphenyl)-N4-(2,2-dimethyl-3-oxo-4H-5-pyrid[1,4]oxazin-6-yl)-5-fluoro-2,4-pyrimidinediamine] | –
17 | < 10 µM | > 10 µM | – | – | CN1C(=O)C(C)(C)Oc2ccc(Nc3nc(Nc4cccc(-c5ncco5)c4)ncc3F)nc21 [Compound 1012, 5-Fluoro-N2-[3-(oxazol-2-yl)phenyl]-N4-[3-oxo-2,2,4-trimethyl-5-pyrid[1,4]oxazin-6-yl]-2,4-pyrimidinediamine] | IC50 [1, 5]: < 10 µM
18 | < 10 µM | > 10 µM | – | – | CN1C(=O)C(C)(C)Oc2ccc(Nc3nc(Nc4ccc(-c5ncco5)cc4)ncc3F)nc21 [Compound 1013, 5-Fluoro-N2-[4-(oxazol-2-yl)phenyl]-N4-[3-oxo-2,2,4-trimethyl-5-pyrid[1,4]oxazin-6-yl]-2,4-pyrimidinediamine] | –
19 | < 10 µM | < 10 µM | – | – | CCOC(=O)COc1c(C)cc(Nc2ncc(F)c(Nc3ccc4c(c3)NC(=O)C(C)(C)O4)n2)cc1Cl [Compound 1014, N2-[3-Chloro-4-ethoxycarbonylmethyleneoxy-5-methylphenyl]-N4-(2,2-dimethyl-3-oxo-4H-benz[1,4]oxazin-6-yl)-5-fluoro-2,4-pyrimidinediamine] | IC50 [1, 5]: < 10 µM
20 | < 10 µM | > 10 µM | – | – | CNC(=O)COc1cccc(Nc2ncc(F)c(Nc3ccc4c(n3)N(C)C(=O)C(C)(C)O4)n2)c1 [Compound 1015, 5-Fluoro-N2-[3-(N-methylamino)carbonylmethyleneoxyphenyl]-N4-[3-oxo-2,2,4-trimethyl-5-pyrid[1,4]oxazin-6-yl]-2,4-pyrimidinediamine] | IC50 [1, 5]: < 10 µM
21 | – | – | < 10 µM | > 10 µM | CC1(C)Oc2ccc(Nc3nc(Nc4cccc(-c5cnco5)c4)ncc3F)cc2NC1=O [Compound 1016, N4-(2,2-Dimethyl-3-oxo-4H-benz[1,4]oxazin-6-yl)-5-fluoro-N2-[3-(oxazol-5-yl)phenyl]-2,4-pyrimidinediamine] | IC50 [1, 8]: < 10 µM
22 | < 10 µM | > 10 µM | – | – | CN1C(=O)C(C)(C)Oc2ccc(Nc3nc(Nc4cccc(-c5cnco5)c4)ncc3F)nc21 [Compound 1017, 5-Fluoro-N2-[3-(oxazol-5-yl)phenyl]-N4-[3-oxo-2,2,4-trimethyl-5-pyrid[1,4]oxazin-6-yl]-2,4-pyrimidinediamine] | IC50 [1, 5]: < 10 µM
23 | – | – | < 10 µM | > 10 µM | Cc1cc(Nc2ncc(F)c(Nc3ccc4c(c3)NC(=O)C(C)(C)O4)n2)cc(Cl)c1OC1CCCC1 [Compound 1018, N2-[3-Chloro-4-cyclopentyloxy-5-methylphenyl]-N4-(2,2-dimethyl-3-oxo-4H-benz[1,4]oxazin-6-yl)-5-fluoro-2,4-pyrimidinediamine] | IC50 [1, 8]: < 10 µM
24 | – | – | < 10 µM | < 10 µM | CN1C(=O)C(C)(C)Oc2ccc(N(C)c3nc(Nc4cccc(-c5ncco5)c4)ncc3F)cc21 [Compound 1025, 5-Fluoro-N4-methyl-N2-[3-(oxazol-2-yl)phenyl]-N4-(3-oxo-2,2,4-trimethylbenz[1,4]oxazin-6-yl)-2,4-pyrimidinediamine] | –
25 | < 10 µM | > 10 µM | – | – | Cc1cc(Nc2ncc(F)c(Nc3ccc4c(n3)NC(=O)C(C)(C)O4)n2)cc(Cl)c1OC1CCCC1 [Compound 1027, N2-(3-Chloro-4-cyclopentyloxy-5-methylphenyl)-N4-(2,2-dimethyl-3-oxo-4H-5-pyrid[1,4]oxazin-6-yl)-5-fluoro-2,4-pyrimidinediamine] | –
26 | – | – | < 10 µM | < 10 µM | CN1C(=O)C(C)(C)Oc2ccc(N(C)c3nc(Nc4cccc(-c5cocn5)c4)ncc3F)cc21 [Compound 1030] | –
27 | – | – | < 10 µM | > 10 µM | COc1c(C)cc(Nc2ncc(F)c(N(C)c3ccc4c(c3)N(C)C(=O)C(C)(C)O4)n2)cc1C [Compound 1031] | –
28 | – | – | > 10 µM | > 10 µM | Cc1cc(Nc2ncc(F)c(N(C)c3ccc4c(c3)N(C)C(=O)C(C)(C)O4)n2)cc(Cl)c1OC1CCCC1 [Compound 1032, N2-(3-Chloro-4-cyclopentyloxy-5-methylphenyl)-5-fluoro-N4-methyl-N4-(3-oxo-2,2,4-trimethyl-benz[1,4]oxazin-6-yl)-2,4-pyrimidinediamine] | –
29 | – | – | < 10 µM | < 10 µM | COc1c(C)cc(Nc2ncc(F)c(Nc3ccc4c(c3)N(C)C(=O)C(C)(C)O4)n2)cc1C [Compound 1033] | IC50 [1, 8]: < 10 µM
